{"source": "PubChem BioAssay (NCI)", "assay_in_all_cases": "NCI anticancer screen, dose series, 48 h", "key": {"[1]": {"system": "786-0 renal"}, "[2]": {"system": "A549 NSCLC"}, "[3]": {"system": "BT-549 breast"}, "[4]": {"system": "CAKI-1 renal"}, "[5]": {"system": "CCRF-CEM leukemia"}, "[6]": {"system": "COLO 205 colon"}, "[7]": {"system": "DU-145 prostate"}, "[8]": {"system": "EKVX NSCLC"}, "[9]": {"system": "HCC-2998 colon"}, "[10]": {"system": "HCT-116 colon"}, "[11]": {"system": "HCT-15 colon"}, "[12]": {"system": "HL-60(TB) leukemia"}, "[13]": {"system": "HOP-62 NSCLC"}, "[14]": {"system": "HOP-92 NSCLC"}, "[15]": {"system": "HS 578T breast"}, "[16]": {"system": "HT29 colon"}, "[17]": {"system": "IGROV1 ovarian"}, "[18]": {"system": "K-562 leukemia"}, "[19]": {"system": "KM12 colon"}, "[20]": {"system": "LOX IMVI melanoma"}, "[21]": {"system": "M14 melanoma"}, "[22]": {"system": "MALME-3M melanoma"}, "[23]": {"system": "MDA-MB-231 breast"}, "[24]": {"system": "MDA-MB-435"}, "[25]": {"system": "MDA-N"}, "[26]": {"system": "MOLT-4 leukemia"}, "[27]": {"system": "NCI-H226 lung"}, "[28]": {"system": "NCI-H23 lung"}, "[29]": {"system": "NCI-H460 lung"}, "[30]": {"system": "NCI-H522 lung"}, "[31]": {"system": "NCI/ADR-RES ovarian"}, "[32]": {"system": "OVCAR-3 ovarian"}, "[33]": {"system": "OVCAR-4 ovarian"}, "[34]": {"system": "OVCAR-5 ovarian"}, "[35]": {"system": "OVCAR-8 ovarian"}, "[36]": {"system": "RPMI-8226 leukemia"}, "[37]": {"system": "RXF 393 renal"}, "[38]": {"system": "SF-268 CNS"}, "[39]": {"system": "SF-295 CNS"}, "[40]": {"system": "SF-539 CNS"}, "[41]": {"system": "SK-MEL-2 melanoma"}, "[42]": {"system": "SK-MEL-28 melanoma"}, "[43]": {"system": "SK-MEL-5 melanoma"}, "[44]": {"system": "SK-OV-3 ovarian"}, "[45]": {"system": "SN12C renal"}, "[46]": {"system": "SNB-19 CNS"}, "[47]": {"system": "SNB-75 CNS"}, "[48]": {"system": "SR leukemia"}, "[49]": {"system": "SW-620 colon"}, "[50]": {"system": "T-47D breast"}, "[51]": {"system": "TK-10 renal"}, "[52]": {"system": "U251 CNS"}, "[53]": {"system": "UACC-257 melanoma"}, "[54]": {"system": "UO-31 renal"}}, "note": "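Growth conditions: 96-well plates. Treatment: test compound, 48 hours, 5 concentrations. Analysis: linear interpolation between bracketing concentrations; unreached endpoints set to highest concentration. Definition used: TGI = concentration required for complete inhibition of growth.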"}
{"smiles": "CCN(CC)S(=O)(=O)c1ccc2nc(NC(=O)OC)[nH]c2c1", "values": [{"measurement": "TGI", "setting": "[1]", "result": "> 100", "unit": "µM"}, {"measurement": "TGI", "setting": "[2]", "result": "> 100", "unit": "µM"}, {"measurement": "TGI", "setting": "[3]", "result": "> 100", "unit": "µM"}, {"measurement": "TGI", "setting": "[4]", "result": "> 100", "unit": "µM"}, {"measurement": "TGI", "setting": "[5]", "result": "> 100", "unit": "µM"}, {"measurement": "TGI", "setting": "[6]", "result": "> 100", "unit": "µM"}, {"measurement": "TGI", "setting": "[7]", "result": "> 100", "unit": "µM"}, {"measurement": "TGI", "setting": "[8]", "result": "> 100", "unit": "µM"}, {"measurement": "TGI", "setting": "[9]", "result": "> 100", "unit": "µM"}, {"measurement": "TGI", "setting": "[10]", "result": "> 100", "unit": "µM"}, {"measurement": "TGI", "setting": "[11]", "result": "> 100", "unit": "µM"}, {"measurement": "TGI", "setting": "[12]", "result": 63.4, "unit": "µM"}, {"measurement": "TGI", "setting": "[13]", "result": "> 100", "unit": "µM"}, {"measurement": "TGI", "setting": "[14]", "result": "> 100", "unit": "µM"}, {"measurement": "TGI", "setting": "[15]", "result": "> 100", "unit": "µM"}, {"measurement": "TGI", "setting": "[16]", "result": "> 100", "unit": "µM"}, {"measurement": "TGI", "setting": "[17]", "result": "> 100", "unit": "µM"}, {"measurement": "TGI", "setting": "[18]", "result": "> 100", "unit": "µM"}, {"measurement": "TGI", "setting": "[19]", "result": "> 100", "unit": "µM"}, {"measurement": "TGI", "setting": "[20]", "result": "> 100", "unit": "µM"}, {"measurement": "TGI", "setting": "[21]", "result": "> 100", "unit": "µM"}, {"measurement": "TGI", "setting": "[22]", "result": "> 100", "unit": "µM"}, {"measurement": "TGI", "setting": "[23]", "result": "> 100", "unit": "µM"}, {"measurement": "TGI", "setting": "[24]", "result": 36.8, "unit": "µM"}, {"measurement": "TGI", "setting": "[25]", "result": 65.9, "unit": "µM"}, {"measurement": "TGI", "setting": "[26]", "result": 61.7, "unit": "µM"}, {"measurement": "TGI", "setting": "[27]", "result": "> 100", "unit": "µM"}, {"measurement": "TGI", "setting": "[28]", "result": "> 100", "unit": "µM"}, {"measurement": "TGI", "setting": "[29]", "result": "> 100", "unit": "µM"}, {"measurement": "TGI", "setting": "[30]", "result": "> 100", "unit": "µM"}, {"measurement": "TGI", "setting": "[31]", "result": "> 100", "unit": "µM"}, {"measurement": "TGI", "setting": "[32]", "result": "> 100", "unit": "µM"}, {"measurement": "TGI", "setting": "[33]", "result": "> 100", "unit": "µM"}, {"measurement": "TGI", "setting": "[34]", "result": "> 100", "unit": "µM"}, {"measurement": "TGI", "setting": "[35]", "result": "> 100", "unit": "µM"}, {"measurement": "TGI", "setting": "[36]", "result": 47.1, "unit": "µM"}, {"measurement": "TGI", "setting": "[37]", "result": "> 100", "unit": "µM"}, {"measurement": "TGI", "setting": "[38]", "result": "> 100", "unit": "µM"}, {"measurement": "TGI", "setting": "[39]", "result": "> 100", "unit": "µM"}, {"measurement": "TGI", "setting": "[40]", "result": 74.3, "unit": "µM"}, {"measurement": "TGI", "setting": "[41]", "result": "> 100", "unit": "µM"}, {"measurement": "TGI", "setting": "[42]", "result": "> 100", "unit": "µM"}, {"measurement": "TGI", "setting": "[43]", "result": "> 100", "unit": "µM"}, {"measurement": "TGI", "setting": "[44]", "result": "> 100", "unit": "µM"}, {"measurement": "TGI", "setting": "[45]", "result": "> 100", "unit": "µM"}, {"measurement": "TGI", "setting": "[46]", "result": "> 100", "unit": "µM"}, {"measurement": "TGI", "setting": "[47]", "result": "> 100", "unit": "µM"}, {"measurement": "TGI", "setting": "[48]", "result": 83.9, "unit": "µM"}, {"measurement": "TGI", "setting": "[49]", "result": "> 100", "unit": "µM"}, {"measurement": "TGI", "setting": "[50]", "result": "> 100", "unit": "µM"}, {"measurement": "TGI", "setting": "[51]", "result": "> 100", "unit": "µM"}, {"measurement": "TGI", "setting": "[52]", "result": "> 100", "unit": "µM"}, {"measurement": "TGI", "setting": "[53]", "result": "> 100", "unit": "µM"}, {"measurement": "TGI", "setting": "[54]", "result": "> 100", "unit": "µM"}]}
